Assays:
mouse [1] = conditions: Combined chronic toxicity/carcinogenicity, other, Oral, Feed, dose end: 24 month, group: systemic
rat [2] = conditions: Multigenerational reproductive toxicity study, Sprague Dawley, Oral, Gavage/Intubation, dose end: 2 generation
rat [3] = conditions: Multigenerational reproductive toxicity study, sprague dawley, Oral, Water, dose end: 3 generation
dog [4] = conditions: Chronic toxicity, beagle, Oral, Feed, dose end: 12 month, group: systemic
mouse [5] = conditions: Chronic toxicity, other, Oral, Feed, dose end: 150 week, group: systemic
rat [6] = conditions: Chronic toxicity, sprague dawley, Oral, Feed, dose end: 24 month, group: systemic
rat [7] = conditions: Multigenerational reproductive toxicity study, Oral, Gavage/Intubation, dose end: 2 generation
rat [8] = conditions: Chronic toxicity; sprague dawley; Oral; Feed; dose end: 52 week; group: systemic; systemic / pathology microscopic / liver / hypertrophy + systemic / pathology microscopic / thyroid gland / colloid content + systemic / …
rat [9] = conditions: Subchronic oral toxicity in rodents, fischer, Gavage/Intubation, dose end: 17 week, group: systemic
mouse [10] = conditions: Subchronic oral toxicity in rodents, b6c3f1, Gavage/Intubation, dose end: 17 week, group: systemic
mouse [11] = conditions: Carcinogenicity; b6c3f1; Oral; Feed; dose end: 78 week; group: systemic; systemic / in life observation / body weight / body weight + systemic / pathology microscopic / liver / carcinoma
rat [12] = conditions: Carcinogenicity; other; Oral; Feed; dose end: 78 week; group: systemic; systemic / pathology microscopic / thyroid gland / adenoma + systemic / in life observation / clinical signs / abdominogenital staining + …
rat [13] = conditions: Prenatal developmental toxicity study, sprague dawley, Inhalation, Whole-Body, dose end: 15 GD
rat [14] = conditions: Multigenerational reproductive toxicity study, sprague dawley, Inhalation, Whole-Body, dose end: 2 generation
dog [15] = conditions: Sub-acute repeat dose toxicity, beagle, Oral, Gavage/Intubation, dose end: 4 week, group: systemic
rat [16] = conditions: Prenatal developmental toxicity study, sprague dawley, Oral, Gavage/Intubation, dose end: 17 GD
rabbit = conditions: Prenatal developmental toxicity study, new zealand white, Oral, Gavage/Intubation, dose end: 19 GD
rat [17] = conditions: Sub-acute repeat dose toxicity, sprague dawley, Oral, Gavage/Intubation, dose end: 28 day, group: systemic
rat [18] = conditions: Prenatal developmental toxicity study, sprague dawley, Oral, Gavage/Intubation, dose end: 17 GD; remark: listed apart in the source
rat [19] = conditions: Carcinogenicity, fischer, Oral, Feed, dose end: 104 week, group: systemic
rat [20] = conditions: Prenatal developmental toxicity study; sprague dawley; Oral; Gavage/Intubation; dose end: 15 GD; group: developmental; systemic / in life observation / body weight / fetal weight
[21] = systemic / clinical chemistry / alanine aminotransferase (alt/sgpt) / alanine aminotransferase (alt/sgpt) + systemic / clinical chemistry / …
[22] = group: offspring, developmental / developmental landmark / vaginal opening / vaginal opening + systemic / clinical chemistry / luteinizing hormone (lh) / …
[23] = group: offspring, systemic / in life observation / clinical signs / swimming time trial
[24] = group: parental, systemic / in life observation / clinical signs / salivation + systemic / organ weight / ovary / absolute + systemic / organ weight / ovary…
[25] = group: reproductive, reproductive / offspring survival early / birth index / live birth index + reproductive / reproductive performance / implantations / …
[26] = group: offspring, systemic / pathology microscopic / liver / nuclear alteration
[27] = group: parental, systemic / pathology microscopic / liver / apoptosis
[28] = systemic / in life observation / clinical signs / feces, discoloration
[29] = systemic / in life observation / body weight / body weight
[30] = systemic / in life observation / body weight / body weight + systemic / organ weight / liver / absolute + systemic / organ weight / liver / …
[31] = group: offspring, developmental / developmental malformation / bone / wavy
[32] = group: reproductive, reproductive / reproductive performance / gestational length / gestational length + reproductive / offspring survival early / dead fetuses…
[33] = systemic / hematology / leukocyte (wbc) count differential / leukocyte (wbc) + systemic / hematology / lymphocyte / lymphocyte
[34] = systemic / hematology / leukocyte (wbc) count differential / leukocyte (wbc) + systemic / hematology / lymphocyte / lymphocyte + systemic / …
[35] = group: developmental, systemic / in life observation / body weight / fetal weight
[36] = group: maternal, systemic / in life observation / body weight / body weight + systemic / in life observation / body weight / body weight gain
[37] = group: maternal, systemic / in life observation / body weight / body weight + systemic / in life observation / body weight / body weight gain + systemic / in…
[38] = group: offspring, systemic / in life observation / body weight / offspring (pup) weight gain + systemic / in life observation / body weight / offspring (pup) …
[39] = group: parental, systemic / in life observation / body weight / body weight
[40] = group: reproductive, reproductive / offspring survival early / litter viability other / litter viability + reproductive / reproductive performance / …
[41] = systemic / clinical chemistry / chloride / chloride + systemic / hematology / eosinophils / eosinophils + systemic / hematology / …
[42] = systemic / in life observation / body weight / body weight + systemic / in life observation / clinical signs / defecation (diarrhea) + …
[43] = group: developmental, developmental / developmental malformation / brain / dilated cerebral ventricle
[44] = group: developmental, developmental / developmental malformation / brain / dilated cerebral ventricle + developmental / developmental malformation / bone / …
[45] = group: maternal, reproductive / reproductive performance / postimplantation loss / postimplantation loss + systemic / in life observation / body weight / …
[46] = group: maternal, reproductive / reproductive performance / postimplantation loss / postimplantation loss + reproductive / reproductive performance / …
[47] = systemic / hematology / platelet / platelet + systemic / in life observation / clinical signs / hunched posture + systemic / pathology …
[48] = group: maternal, systemic / in life observation / body weight / body weight gain + systemic / in life observation / food consumption / food consumption + …
[49] = systemic / pathology microscopic / parathyroid gland / hyperplasia

## CC(CCl)OC(C)CCl (centres undefined) [Bis(2-chloro-1-methylethyl) ether]
Mouse [1]; [21]
  LOAEL: > 927 mg/kg/day
  NEL: 8.41 mg/kg/day
  NOAEL: ≥ 927 mg/kg/day
Mouse [1]; systemic / hematology / leukocyte (wbc) count differential / leukocyte (wbc)
  LEL: 40.1 mg/kg/day

## CCCCCCCCCc1ccccc1O [Nonylphenol (mixed)]
Rat [2]; [22]
  LOAEL: > 50 mg/kg/day
  NOAEL: ≥ 50 mg/kg/day
Rat [2]; [23]
  LEL: 2 mg/kg/day
  NEL: < 2 mg/kg/day
Rat [2]; [24]
  LEL: 50 mg/kg/day
  LOAEL: > 50 mg/kg/day
  NEL: 10 mg/kg/day
  NOAEL: ≥ 50 mg/kg/day
Rat [2]; [25]
  LEL: 50 mg/kg/day
  LOAEL: > 50 mg/kg/day
  NEL: 10 mg/kg/day
  NOAEL: ≥ 50 mg/kg/day
Rat [3]; [26]
  LEL: 1.25 mg/kg/day
  LOAEL: > 1.25 mg/kg/day
  NEL: < 1.25 mg/kg/day
  NOAEL: ≥ 1.25 mg/kg/day
Rat [3]; [27]
  LEL: 1.25 mg/kg/day
  LOAEL: > 1.25 mg/kg/day
  NEL: < 1.25 mg/kg/day
  NOAEL: ≥ 1.25 mg/kg/day

## CC1(C)C(=O)N(Cl)C(=O)N1Br [Bromo-3-chloro-5,5-dimethylhydantoin]
Dog [4]; [28]
  LEL: 120 mg/kg/day
  NEL: < 120 mg/kg/day
Dog [4]; systemic / pathology microscopic / adrenal gland / hypertrophy
  LOAEL: 1510 mg/kg/day
Dog [4]; systemic / pathology microscopic / adrenal gland / hypertrophy + systemic / in life observation / clinical signs / feces, discoloration + …
  NOAEL: 342 mg/kg/day

## CCOC(=O)NC(=S)Nc1ccccc1NC(=S)NC(=O)OCC [Thiophanate]
Mouse [5]; systemic / pathology microscopic / ovary / cyst
  NEL: 60 mg/kg/day
Mouse [5]; systemic / pathology microscopic / testes / hypospermatogenesis
  LOAEL: 300 mg/kg/day
Mouse [5]; systemic / pathology microscopic / testes / hypospermatogenesis + systemic / pathology microscopic / liver / fatty change
  NOAEL: 60 mg/kg/day
Mouse [5]; systemic / pathology microscopic / testes / hypospermatogenesis + systemic / pathology microscopic / liver / fatty change + systemic / …
  LEL: 300 mg/kg/day
Rat [6]; [29]
  NEL: 10 mg/kg/day
  NOAEL: 10 mg/kg/day
Rat [6]; [30]
  LEL: 50 mg/kg/day
  LOAEL: 50 mg/kg/day

## COc1ccc(C(=O)c2c(C)n(CCN3CCOCC3)c3ccccc23)cc1 [Pravadoline]
Rat [7]; [31]
  LEL: 300 mg/kg/day
  LOAEL: > 300 mg/kg/day
  NEL: 100 mg/kg/day
  NOAEL: ≥ 300 mg/kg/day
Rat [7]; group: reproductive, reproductive / reproductive performance / gestational length / gestational length
  NEL: 100 mg/kg/day
Rat [7]; [32]
  LEL: 300 mg/kg/day
  LOAEL: > 300 mg/kg/day
  NOAEL: ≥ 300 mg/kg/day

## C/C=C/C(=O)Oc1ccccc1[N+](=O)[O-].CCCCCCCC.O=NO [Dinocap]
Rat [8]
  LEL: 121 mg/kg/day
  LOAEL: 121 mg/kg/day
  NEL: 11.4 mg/kg/day
  NOAEL: 11.4 mg/kg/day

## c1ccccc1 [Benzene]
Rat [9]; [33]
  LEL: 25 mg/kg/day
  NEL: < 25 mg/kg/day
Rat [9]; [34]
  LOAEL: > 600 mg/kg/day
  NOAEL: ≥ 600 mg/kg/day
Mouse [10]; [33]
  LEL: 50 mg/kg/day
Mouse [10]; [34]
  LOAEL: > 600 mg/kg/day
  NEL: 25 mg/kg/day
  NOAEL: ≥ 600 mg/kg/day

## Clc1ccc(C(c2ccc(Cl)cc2)C(Cl)Cl)cc1 [p,p'-DDD]
Mouse [11]
  LEL: 61.6 mg/kg/day
  LOAEL: > 123 mg/kg/day
  NEL: < 61.6 mg/kg/day
  NOAEL: ≥ 123 mg/kg/day
Rat [12]
  LEL: 42.5 mg/kg/day
  LOAEL: > 85 mg/kg/day
  NEL: < 42.5 mg/kg/day
  NOAEL: ≥ 85 mg/kg/day

## C1CO1 [Ethylene oxide]
Rat [13]; [35]
  LEL: 50 ppm
  LOAEL: 50 ppm
  NEL: < 50 ppm
  NOAEL: < 50 ppm
Rat [13]; [36]
  LEL: 125 ppm
  LOAEL: 125 ppm
Rat [13]; [37]
  NEL: 50 ppm
  NOAEL: 50 ppm
Rat [14]; [38]
  LEL: 33 ppm
  LOAEL: 33 ppm
  NEL: 10 ppm
  NOAEL: 10 ppm
Rat [14]; [39]
  LEL: 33 ppm
  LOAEL: 33 ppm
  NEL: 10 ppm
  NOAEL: 10 ppm
Rat [14]; [40]
  LEL: 33 ppm
  LOAEL: 33 ppm
  NEL: 10 ppm
  NOAEL: 10 ppm

## N#C[C@@H]1CC(F)(F)CN1C(=O)CNC1CC2CCC(C1)N2c1ncccn1 (some centres undefined)
Dog [15]; [41]
  LOAEL: > 30 mg/kg/day
  NOAEL: ≥ 30 mg/kg/day
Dog [15]; [42]
  LEL: 3 mg/kg/day
  NEL: < 3 mg/kg/day
Rat [16]; [43]
  LEL: 100 mg/kg/day
  LOAEL: 100 mg/kg/day
Rat [16]; [44]
  NEL: 50 mg/kg/day
  NOAEL: 50 mg/kg/day
Rat [16]; [45]
  LOAEL: 150 mg/kg/day
  NEL: 50 mg/kg/day
  NOAEL: 100 mg/kg/day
Rat [16]; group: maternal, systemic / in life observation / body weight / body weight gain
  LEL: 100 mg/kg/day
rabbit; [35]
  LEL: 500 mg/kg/day
  LOAEL: > 1500 mg/kg/day
  NEL: < 500 mg/kg/day
  NOAEL: ≥ 1500 mg/kg/day
rabbit; [46]
  LEL: 500 mg/kg/day
  LOAEL: > 1500 mg/kg/day
  NEL: < 500 mg/kg/day
  NOAEL: ≥ 1500 mg/kg/day
Rat [17]; [21]
  LOAEL: > 450 mg/kg/day
  NOAEL: ≥ 450 mg/kg/day
Rat [17]; [47]
  LEL: 50 mg/kg/day
  NEL: < 50 mg/kg/day
Rat [18]; [35]
  LEL: 100 mg/kg/day
  LOAEL: 100 mg/kg/day
  NEL: < 100 mg/kg/day
  NOAEL: < 100 mg/kg/day
Rat [18]; [48]
  LEL: 200 mg/kg/day
  LOAEL: 200 mg/kg/day
  NEL: 100 mg/kg/day
  NOAEL: 100 mg/kg/day

## O=c1c(O)c(-c2ccc(O)c(O)c2)oc2cc(O)cc(O)c12 [Quercetin]
Rat [19]; systemic / in life observation / body weight / body weight + systemic / in life observation / body weight / body weight gain + systemic / …
  LOAEL: 1600 mg/kg/day
Rat [19]; systemic / in life observation / body weight / body weight + systemic / organ weight / kidney / relative to body weight + systemic / organ …
  NOAEL: 400 mg/kg/day
Rat [19]; [49]
  LEL: 40 mg/kg/day
  NEL: < 40 mg/kg/day
Rat [20]
  LEL: 200 mg/kg/day
  LOAEL: > 2000 mg/kg/day
  NEL: 20 mg/kg/day
  NOAEL: ≥ 2000 mg/kg/day

Source: EPA's ToxRefDB 2
